The values that follow come from article PMC9250534, “Synthesis and direct assay of large macrocycle diversities by combinatorial late-stage modification at picomole scale” (Nature Communications, 2022).

Data set [1] relates to MDM2. The settings on record: MDM2 inhibitor in clinical studies; literature value, no reference given; read-out: HTRF IC50; cited from earlier work. On the technique in general: TR-FRET usually uses a lanthanide donor and a delayed reading to cut background.
The conditions of data set [2]: prodrug; cited from earlier work.
The target of data set [3] is T1, MDM2 (Homo sapiens, UniProt Q00987). In words: MDM2 binding (FP53 displacement) by HPLC fractions of resynthesized hit reactions. The procedure: For hits from the MDM2 screen, reactions were performed in the same way but at a 50 nmol scale, and purified with the same method but a 10–80% gradient of solvent B and over 22 min. Fractions were lyophilized and dissolved in 40 μL of DMSO, 160 μL of water was added, and 5 μL of each fraction was transferred to a 384-well plate (Nunc, 264705), and 15 μL of premixed MDM2/FP53 peptide were added (final concentrations: 1.2 μM MDM2, 50 nM FP53, 5% DMSO).

The target of data set [4] is T1, MDM2. In words: IC50 of purified MDM2-binding macrocycles, fluorescence polarization competition with FP53. The settings on record: for IC50: HPLC-purified macrocycle, FP displacement of fluorescent reporter peptide; for anisotropy: replicates 1-3. How it is done:
Volumes of 5 μL of purified macrocycles (20 mM in DMSO) were serial diluted two-fold in 100% DMSO in a low dead-volume ECHO source plate. Using acoustic droplet transfer, 150 nL of each dilution was transferred to a 384 well low volume polystyrene plate (Nunc, 264705). […] Fluorescence anisotropy was measured as described above. The percentage of bound inhibitor was calculated using the following equation4 %boundinhibitor=N−X/N−P×100 where N is the average anisotropy of the DMSO controls, X is the anisotropy value obtained for each well, and P is the average anisotropy of the unbound probe. The IC50s were determined by plotting the percent of bound inhibitor against the logarithm of the corresponding macrocycle concentration, and the curves were fitted in GraphPad Prism 6 as described above.
A general note: Fluorescence polarisation rises when a labelled molecule tumbles more slowly, as on binding a larger partner.

The target in data set [5] is T1, MDM2. In words: Kd of MDM2 binders by surface plasmon resonance (SPR). Particulars: unlabeled macrocycles; triplicate. Format: binding. The procedure: Experiments were performed using a GE Healthcare Biacore 8 K instrument. MDM2 (10 μg/mL) was dissolved in 10 mM MES buffer (pH 6.0) and immobilized on three channels of a CM5 series S chip (Cytiva, 29104988) using EDC/NHS amine coupling conditions in running buffer (10 mM PBS pH 7.4, 150 mM NaCl, 3 mM KCl, and 0.005% v/v Tween 20). Typical immobilization level was 6000 to 7000 resonance units (RUs). The reference cell was treated the same way without MDM2. For the measurement of binding kinetics and dissociation constants, five serial dilutions (3-fold) of macrocycles plus a DMSO blank were prepared in running buffer (10 mM PBS pH 7.4, 150 mM NaCl, 3 mM KCl, and 0.005% v/v Tween 20, and 0.5% v/v DMSO) and analyzed in single cycle kinetics mode with contact and dissociation times of 120 s and 60 s, respectively. The data was collected and analyzed using the Biacore 8 K Control Software.
Supplementary Figure 14. Binding of macrocycles to MDM2 measured by SPR. a, Single-cycle SPR sensorgrams for fluorescein-labeled macrocycles, positive control nutlin-3a (not fluorescein labeled), and negative controls (thrombin inhibitors; not fluorescein labeled). RU, response unit. b, Single-cycle SPR sensorgrams for macrocycles M6, M7, M8 and M10 (not fluorescein-labeled), performed in triplicate.
(1 picture or pasted object on this page, not shown here)
A general note: SPR reads the build-up and loss of mass on a sensor chip optically.

Several values for one entry are separate records, joined by “and”; a condition that tells them apart may be missing. Identical values can stand only once. Like-named read-outs stand apart in the source and are kept apart here.

In general, IC50 refers to the point on the concentration scale where inhibition reaches its midpoint. Take `COc1cc(C(=O)O)ccc1NC(=O)[C@@H]1N[C@@H](CC(C)(C)C)[C@](C#N)(c2ccc(Cl)cc2F)[C@H]1c1cccc(Cl)c1F` [idasanutlin (RG7388), idasanutlin]: in the data set on MDM2 [1], the IC50 is […].

T1 sequence (Q00987 whole entry): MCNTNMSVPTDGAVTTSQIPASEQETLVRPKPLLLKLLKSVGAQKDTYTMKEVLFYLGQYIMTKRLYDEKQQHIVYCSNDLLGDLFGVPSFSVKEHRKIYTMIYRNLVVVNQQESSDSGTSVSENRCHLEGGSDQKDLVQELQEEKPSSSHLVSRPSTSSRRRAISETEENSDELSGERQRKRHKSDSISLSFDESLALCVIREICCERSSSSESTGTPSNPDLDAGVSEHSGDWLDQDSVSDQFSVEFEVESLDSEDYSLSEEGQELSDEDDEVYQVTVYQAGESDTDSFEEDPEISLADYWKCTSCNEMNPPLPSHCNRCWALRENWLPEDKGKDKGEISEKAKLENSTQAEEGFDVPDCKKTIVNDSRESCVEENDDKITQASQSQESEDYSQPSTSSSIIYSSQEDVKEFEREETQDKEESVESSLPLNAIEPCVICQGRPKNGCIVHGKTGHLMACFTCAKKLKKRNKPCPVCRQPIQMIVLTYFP

Turning to `CCCCCCOC(=O)NC(=N)c1ccc(NCc2nc3cc(C(=O)N(CCC(=O)OCC)c4ccccn4)ccc3n2C)cc1` [dabigatran etexilate], the oral availability in data set [2] is on record as less than 6.5%.

By Kd is commonly meant the free concentration of one partner at which half of the binding sites on the other are occupied at equilibrium, for simple one-to-one binding. High values mean lower affinity, low ones higher affinity. Turning to `O=C(NC[C@@H]1NC(=O)[C@H]2CCCN(C2)C(=O)CCSSCCNC(=O)[C@H](Cc2c[nH]c3ccccc23)NC1=O)c1ccc(Cl)s1` [M6], the “Fraction bound (fraction fluorescent probe displaced)” value (shortened to “Fraction bound”) at MDM2 [3] (HPLC Fraction 1 of acylation reaction) is on record as -0.09; on MDM2 [3] (HPLC Fraction 2 of acylation reaction), 0.04; at MDM2 [3] (HPLC Fraction 3 of acylation reaction), 0.0145; at MDM2 [3] (HPLC Fraction 4 of acylation reaction), 0.04; on MDM2 [3] (HPLC Fraction 5 of acylation reaction) it was -0.0633; at MDM2 [3] (HPLC Fraction 6 of acylation reaction), -0.0373. Moreover, the “Fraction bound” value is recorded as -0.0114 on MDM2 [3] (HPLC Fraction 7 of acylation reaction); -0.0114 at MDM2 [3] (HPLC Fraction 8 of acylation reaction); 0.0664 on MDM2 [3] (HPLC Fraction 9 of acylation reaction); -0.0373 at MDM2 [3] (HPLC Fraction 10 of acylation reaction); -0.09 at MDM2 [3] (HPLC Fraction 11 of acylation reaction); -0.0633 at MDM2 [3] (HPLC Fraction 12 of acylation reaction). Besides, the “Fraction bound” value is -0.0373 at MDM2 [3] (HPLC Fraction 13 of acylation reaction); 0.27 on MDM2 [3] (HPLC Fraction 14 of acylation reaction); -0.22 on MDM2 [3] (HPLC Fraction 15 of acylation reaction); -0.0114 at MDM2 [3] (HPLC Fraction 16 of acylation reaction); 0.04 at MDM2 [3] (HPLC Fraction 17 of acylation reaction); -0.0373 on MDM2 [3] (HPLC Fraction 18 of acylation reaction). The “Fraction bound” value is on record as -0.24 on MDM2 [3] (HPLC Fraction 19 of acylation reaction) and -0.0633 on MDM2 [3] (HPLC Fraction 20 of acylation reaction). Moreover, the IC50 is 2.4 µM on MDM2 [4] (average of 3 replicates, read-out: IC50 Average); 2.6 µM at MDM2 [4] (replicate 1, read-out: IC50 Replicate 1); 1.9 µM at MDM2 [4] (replicate 2, read-out: IC50 Replicate 2); 2.6 µM at MDM2 [4] (replicate 3, read-out: IC50 Replicate 3). For the same compound, the “displacement of fluorescent peptide probe from MDM2” value on MDM2 [4] (HPLC-purified macrocycles, FP competition) was “efficiently displaced”. For the same compound, the anisotropy on MDM2 [4] (Log[Macrocycle] M -4.0) is 25 and 23 and 22; on MDM2 [4] (Log[Macrocycle] M -4.3) it was 31 and 28 and 30; at MDM2 [4] (Log[Macrocycle] M -4.6), 33 (2×) and 32; on MDM2 [4] (Log[Macrocycle] M -4.9) it was 38 and 32 and 40; at MDM2 [4] (Log[Macrocycle] M -5.2), 47 and 39 and 44; on MDM2 [4] (Log[Macrocycle] M -5.5), 51 and 45 and 47. Moreover, the anisotropy is 62 and 52 and 55 on MDM2 [4] (Log[Macrocycle] M -5.8); 69 and 59 and 62 at MDM2 [4] (Log[Macrocycle] M -6.1); 80 and 67 and 64 at MDM2 [4] (Log[Macrocycle] M -6.4); 83 and 68 and 74 on MDM2 [4] (Log[Macrocycle] M -6.7); 78 and 72 and 75 on MDM2 [4] (Log[Macrocycle] M -7.0); 86 and 75 and 80 at MDM2 [4] (Log[Macrocycle] M -7.3). The anisotropy on MDM2 [4] (Log[Macrocycle] M -7.6) was 89 and 77 and 85; on MDM2 [4] (Log[Macrocycle] M -7.9), 88 and 77 and 82; on MDM2 [4] (Log[Macrocycle] M -8.2) it was 89 and 77 and 85; on MDM2 [4] (Log[Macrocycle] M -8.5), 91 and 80 and 78. The same compound registered a Kd at MDM2 [5] of 0.6 ± 0.3 µM.
